Measurements as given in patent publication US20220315554A1, “COMPOUNDS COMPRISING A […] LIGAND AND USE THEREOF” (priority 2019, published 2022).
Numbered stars: 1 amine (or outer) side, 2 acyl side, 3 side chain; on linkers, the order of the positions; unused ones are H or OH. Bridge positions count the residues as written; N and C are the ends. Square brackets hold non-standard residues; d marks the D form. Peptide text beside a SMILES is read from it. * marks the point of attachment. TBMB(SCH2CH2NH-DOTA) = O=C(O)CN1CCN(CC(=O)O)CCN(CC(=O)NCCSCc2cc(C[*:1])cc(C[*:2])c2)CCN(CC(=O)O)CC1; X24 = NCCNCC(CNCCN)C(=O)N[C@@H](CCC(=O)NC[C@H](O)[C@@H](O)[C@H](O)[C@H](O)CO)C(=O)NCCCOCCOCCOCCCN*; X9 = NCCNCC(CNCCN)C(=O)N[C@@H](CCC(=O)O)C(=O)NCCCOCCOCCOCCCN*; X10 = O=C([C@H](CCCc1cccc(C[*:3])c1)N[*:1])[*:2]; mXylylene = c1cc(C[*:1])cc(C[*:2])c1; PEG6 = NCCOCCOCCOCCOCCOCCOCCC(=O)O; Suc = O=C(CCC(=O)[*:2])[*:1]; X18 = NCCNCC(CNCCN)C(=O)*; Nle = CCCC[C@H](N)C(=O)O; Hexanoyl = CCCCCC(=O)*

How the values were obtained:
[1] = target: T1, FAP-expressing human WI-38 fibroblasts (Homo sapiens, UniProt Q12884); assay: Competitive FACS binding assay; conditions: pIC50 Category (FACS), competition with 3 nM Cy5-labeled compound, 4° C., 1 hour
T1 construct: FAP-expressing human WI-38 fibroblasts (ECACC) were cultured in EMEM; host or cells: WI-38 human fibroblasts
T1 sequence (Q12884 1-760): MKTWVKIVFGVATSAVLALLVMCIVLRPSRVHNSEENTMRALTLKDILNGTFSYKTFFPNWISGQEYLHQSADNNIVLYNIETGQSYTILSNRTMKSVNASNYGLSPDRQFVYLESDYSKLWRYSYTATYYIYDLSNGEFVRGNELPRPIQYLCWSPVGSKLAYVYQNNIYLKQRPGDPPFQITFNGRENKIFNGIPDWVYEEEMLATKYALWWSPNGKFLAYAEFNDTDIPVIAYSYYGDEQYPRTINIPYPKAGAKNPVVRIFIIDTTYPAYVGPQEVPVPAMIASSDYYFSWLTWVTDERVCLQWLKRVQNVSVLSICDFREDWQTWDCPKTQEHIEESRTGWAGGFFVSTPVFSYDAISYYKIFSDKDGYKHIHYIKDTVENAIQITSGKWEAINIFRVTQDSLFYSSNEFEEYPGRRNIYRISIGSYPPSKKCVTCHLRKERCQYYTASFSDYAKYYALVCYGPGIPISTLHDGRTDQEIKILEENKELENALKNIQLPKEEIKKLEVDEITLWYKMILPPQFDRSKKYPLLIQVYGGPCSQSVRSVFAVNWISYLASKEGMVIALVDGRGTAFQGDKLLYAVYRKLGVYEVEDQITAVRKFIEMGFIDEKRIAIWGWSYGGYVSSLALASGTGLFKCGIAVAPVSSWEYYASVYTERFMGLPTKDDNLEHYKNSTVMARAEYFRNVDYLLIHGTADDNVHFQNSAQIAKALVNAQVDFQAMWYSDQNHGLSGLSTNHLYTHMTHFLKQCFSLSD
Description: Cells were analyzed in an Attune NxT flow cytometer. […]

Human recombinant FAP [2] = target: T2, Human recombinant FAP (Homo sapiens, UniProt Q12884); assay: Surface plasmon resonance (Biacore) assay; type: binding
T2 sequence (Q12884 1-760): T1 sequence (Q12884 1-760)

Human recombinant FAP [3] = target: T2, Human recombinant FAP; assay: FRET-based FAP protease activity assay; type: biochemical; design: purchased R&D systems 3715-SE; conditions: pIC50 Category (Activity), FRET substrate, 37° C.

| Structure (SMILES) | IC50 [1] [nM] | Kd (Human recombinant FAP [2]) [nM] | IC50 (Human recombinant FAP [3]) [nM] |
| --- | --- | --- | --- |
| CCCCCC(=O)N[C@H]1CSCc2cc(CSCCNC(=O)CC[C@@H]3C(=O)[O][Ga]([O]C(=O)CN(C)CC)[O]C(=O)CN(C)CCN3CC)cc(c2)CSC[C@@H](C(=O)O)NC(=O)[C@H](Cc2ccccc2)NC(=O)[C@H](CCC(N)=O)NC(=O)[C@H]([C@@H](C)O)NC(=O)[C@@H]2CCCN2C(=O)[C@@H]2CCCN2C1=O [3BP-4184, Gallium-Complex of Hex-[Cys(tMeBn(NODAGA-AET))-Pro-Pro-Thr-Gln-Phe-Cys]-OH] | < 10 | < 10 | < 10 |
| CCCC[C@H](NC(=O)CCC(=O)NCCCOCCOCCOCCCNC(=O)C(CNCCN)CNCCN)C(=O)N[C@H]1CSCc2cccc(c2)CSC[C@@H](C(=O)O)NC(=O)[C@H](Cc2ccccc2)NC(=O)[C@H](CCC(N)=O)NC(=O)[C@H]([C@@H](C)O)NC(=O)[C@@H]2CCCN2C(=O)[C@@H]2CCCN2C1=O [3BP-4219, N4Ac-Ttds-Nle-[Cys-(3MeBn)-Pro-Pro-Thr-Gln-Phe-Cys]-OH] | 10 to 79.4 | < 10 | < 10 |
| CCCC[C@H](NC(=O)CCOCCOCCOCCOCCOCCOCCNC(=O)C(CNCCN)CNCCN)C(=O)N[C@H]1CSCc2cccc(c2)CSC[C@@H](C(=O)O)NC(=O)[C@H](Cc2ccccc2)NC(=O)[C@H](CCC(=O)O)NC(=O)[C@H]([C@@H](C)O)NC(=O)[C@@H]2CCCN2C(=O)[C@@H]2CCCN2C1=O [3BP-4221, N4Ac-PEG6-Nle-[Cys-(3MeBn)-Pro-Pro-Thr-Glu-Phe-Cys]-OH] ({X18-PEG6}-[Nle]CPPTEFC-OH; linker 2-8 via mXylylene) | 10 to 79.4 | < 10 | 10 to 79.4 |
| CCCCCC(=O)N[C@H]1CSCc2cc(CSCCNC(=O)COCCOCCNC(=O)CC[C@H](C(=O)O)N3CCN(CC(=O)O)CCN(CC(=O)O)CC3)cc(c2)CSC[C@@H](C(=O)O)NC(=O)[C@H](Cc2ccccc2)NC(=O)[C@H](CCC(N)=O)NC(=O)[C@H]([C@@H](C)O)NC(=O)[C@@H]2CCCN2C(=O)[C@@H]2CCCN2C1=O [3BP-4251, Hex-[Cys-(tMeBn(NODAGA-O2Oc-AET))-Pro-Pro-Thr-Gln-Phe-Cys]-OH] | < 10 | < 10 | < 10 |

More lines, now with the values ahead:

| IC50 [1] [nM] | Kd (Human recombinant FAP [2]) [nM] | IC50 (Human recombinant FAP [3]) [nM] | Structure (SMILES) |
| --- | --- | --- | --- |
| 10 to 79.4 | < 10 | 10 to 79.4 | CCCC[C@H](NC(=O)CCC(=O)NCCCOCCOCCOCCCNC(=O)[C@H](CCC(=O)O)NC(=O)C(CNCCN)CNCCN)C(=O)N[C@H]1CSCc2cccc(c2)CCC[C@@H](C(=O)O)NC(=O)[C@H](Cc2ccccc2)NC(=O)[C@H](CCC(=O)O)NC(=O)[C@H]([C@@H](C)O)NC(=O)[C@@H]2CCCN2C(=O)[C@@H]2CCCN2C1=O [3BP-4222, N4Ac-Glu-Ttds-Nle-[Cys-(3MeBn)-Pro-Pro-Thr-Glu-Phe-Cys]-OH] ({X9-Suc}-[Nle]CPPTEF[X10]-OH; thioether 2-8) |
| 10 to 79.4 | < 10 | 10 to 79.4 | CCCC[C@H](NC(=O)CCC(=O)NCCCOCCOCCOCCCNC(=O)[C@H](CCC(=O)NC[C@H](O)[C@@H](O)[C@H](O)[C@H](O)CO)NC(=O)C(CNCCN)CNCCN)C(=O)N[C@H]1CSCc2cccc(c2)CSC[C@@H](C(=O)O)NC(=O)[C@H](Cc2ccccc2)NC(=O)[C@H](CCC(=O)O)NC(=O)[C@H]([C@@H](C)O)NC(=O)[C@@H]2CCCN2C(=O)[C@@H]2CCCN2C1=O [3BP-4246, N4Ac-Glu(AGLU)-Ttds-Nle-[Cys-(3MeBn)-Pro-Pro-Thr-Gln-Phe-Cys]-OH] ({X24-Suc}-[Nle]CPPTEFC-OH; linker 2-8 via mXylylene) |
| < 10 | < 10 | 10 to 79.4 | CCCCCC(=O)N[C@H]1CSCc2cc(CSCCNC(=O)CN3CCN(CC(=O)O)CCN(CC(=O)O)CCN(CC(=O)O)CC3)cc(c2)CSC[C@@H](C(=O)O)NC(=O)[C@H](Cc2ccccc2)NC(=O)[C@H](CCC(=O)O)NC(=O)[C@H]([C@@H](C)O)NC(=O)[C@@H]2CCCN2C(=O)[C@@H]2CCCN2C1=O [3BP-4250, Hex-[Cys-(tMeBn(DOTA-AET))-Pro-Pro-Thr-Glu-Phe-Cys]-OH] (Hexanoyl-CPPTEFC-OH; linker 1-7 via TBMB(SCH2CH2NH-DOTA)) |
